How the values were obtained:
[1] = biological target: T1, Mitogen-activated protein kinase 12 (Homo sapiens) (UniProt P53778); assay: Inhibition of p38gamma Lys2 labeling site in human Huh-7 cells at 1 uM by KiNativ Profiling analysis relative to control; type: cell-based
T1 sequence (whole entry): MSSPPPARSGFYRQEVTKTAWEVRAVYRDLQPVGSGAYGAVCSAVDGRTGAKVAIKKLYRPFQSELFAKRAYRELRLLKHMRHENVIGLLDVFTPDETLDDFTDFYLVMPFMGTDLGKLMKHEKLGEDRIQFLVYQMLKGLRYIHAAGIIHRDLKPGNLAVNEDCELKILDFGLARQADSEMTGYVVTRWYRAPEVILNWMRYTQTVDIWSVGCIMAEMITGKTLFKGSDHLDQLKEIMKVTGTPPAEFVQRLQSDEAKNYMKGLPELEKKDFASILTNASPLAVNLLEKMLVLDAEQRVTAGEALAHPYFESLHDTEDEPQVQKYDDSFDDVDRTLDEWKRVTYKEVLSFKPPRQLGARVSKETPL

[2] = biological target: 5'-AMP-activated protein kinase catalytic subunit alpha-1 (Homo sapiens) (UniProt Q13131); assay: Inhibition of AMPKa1 Lys1 labeling site in human Huh-7 cells at 1 uM by KiNativ Profiling analysis relative to control; type: cell-based
[3] = biological target: Mitogen-activated protein kinase 9 (Homo sapiens, UniProt P45984); assay: Inhibition of JNK2 Lys2 labeling site in human Huh-7 cells at 1 uM by KiNativ Profiling analysis relative to control; type: cell-based
[4] = biological target: T2, Serine/threonine-protein kinase greatwall (Homo sapiens) (UniProt Q96GX5); assay: Inhibition of MASTL ATP labeling site in human Huh-7 cell lysate at 1 uM by KiNativ Profiling analysis relative to control; type: subcellular
T2 sequence (whole entry): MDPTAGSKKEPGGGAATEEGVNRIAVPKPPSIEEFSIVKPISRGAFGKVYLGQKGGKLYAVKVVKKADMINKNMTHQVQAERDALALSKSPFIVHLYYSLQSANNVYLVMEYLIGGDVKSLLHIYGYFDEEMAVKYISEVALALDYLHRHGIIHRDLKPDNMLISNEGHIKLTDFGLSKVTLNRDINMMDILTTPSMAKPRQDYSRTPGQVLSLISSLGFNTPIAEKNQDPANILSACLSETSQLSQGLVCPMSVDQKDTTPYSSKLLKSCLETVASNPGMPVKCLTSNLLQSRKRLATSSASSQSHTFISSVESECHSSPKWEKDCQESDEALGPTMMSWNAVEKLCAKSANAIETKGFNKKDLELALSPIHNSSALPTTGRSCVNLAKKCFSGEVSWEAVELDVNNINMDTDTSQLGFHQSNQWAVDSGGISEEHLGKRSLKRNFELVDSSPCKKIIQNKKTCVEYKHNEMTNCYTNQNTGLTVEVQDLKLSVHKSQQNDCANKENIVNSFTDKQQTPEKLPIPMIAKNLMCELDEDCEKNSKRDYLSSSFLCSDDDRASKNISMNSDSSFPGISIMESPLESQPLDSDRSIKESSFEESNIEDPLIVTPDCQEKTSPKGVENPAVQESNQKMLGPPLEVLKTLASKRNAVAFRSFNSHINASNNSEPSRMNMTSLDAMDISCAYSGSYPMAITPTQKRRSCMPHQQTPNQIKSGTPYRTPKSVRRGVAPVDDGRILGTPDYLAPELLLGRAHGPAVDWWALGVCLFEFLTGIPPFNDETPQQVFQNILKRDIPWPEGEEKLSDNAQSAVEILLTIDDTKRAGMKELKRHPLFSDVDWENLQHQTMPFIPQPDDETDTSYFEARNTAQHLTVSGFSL

[5] = system: Epidermal growth factor receptor (Homo sapiens), P00533 [L858R]; assay: Inhibition of EGFR L858R mutant (unknown origin) at 10 uM by Ambit Kinomescan binding assay relative to control
[6] = biological target: Cyclin-dependent kinase-like 5 (Homo sapiens) (UniProt O76039); assay: Inhibition of CDKL5 (unknown origin) at 1 uM by Ambit Kinomescan binding assay relative to control; values are per cent of control
[7] = biological target: T3, Serine/threonine-protein kinase TAO1 (Homo sapiens) (UniProt Q7L7X3); assay: Inhibition of TAOK1 (unknown origin) at 1 uM by Ambit Kinomescan binding assay relative to control
T3 sequence (whole entry): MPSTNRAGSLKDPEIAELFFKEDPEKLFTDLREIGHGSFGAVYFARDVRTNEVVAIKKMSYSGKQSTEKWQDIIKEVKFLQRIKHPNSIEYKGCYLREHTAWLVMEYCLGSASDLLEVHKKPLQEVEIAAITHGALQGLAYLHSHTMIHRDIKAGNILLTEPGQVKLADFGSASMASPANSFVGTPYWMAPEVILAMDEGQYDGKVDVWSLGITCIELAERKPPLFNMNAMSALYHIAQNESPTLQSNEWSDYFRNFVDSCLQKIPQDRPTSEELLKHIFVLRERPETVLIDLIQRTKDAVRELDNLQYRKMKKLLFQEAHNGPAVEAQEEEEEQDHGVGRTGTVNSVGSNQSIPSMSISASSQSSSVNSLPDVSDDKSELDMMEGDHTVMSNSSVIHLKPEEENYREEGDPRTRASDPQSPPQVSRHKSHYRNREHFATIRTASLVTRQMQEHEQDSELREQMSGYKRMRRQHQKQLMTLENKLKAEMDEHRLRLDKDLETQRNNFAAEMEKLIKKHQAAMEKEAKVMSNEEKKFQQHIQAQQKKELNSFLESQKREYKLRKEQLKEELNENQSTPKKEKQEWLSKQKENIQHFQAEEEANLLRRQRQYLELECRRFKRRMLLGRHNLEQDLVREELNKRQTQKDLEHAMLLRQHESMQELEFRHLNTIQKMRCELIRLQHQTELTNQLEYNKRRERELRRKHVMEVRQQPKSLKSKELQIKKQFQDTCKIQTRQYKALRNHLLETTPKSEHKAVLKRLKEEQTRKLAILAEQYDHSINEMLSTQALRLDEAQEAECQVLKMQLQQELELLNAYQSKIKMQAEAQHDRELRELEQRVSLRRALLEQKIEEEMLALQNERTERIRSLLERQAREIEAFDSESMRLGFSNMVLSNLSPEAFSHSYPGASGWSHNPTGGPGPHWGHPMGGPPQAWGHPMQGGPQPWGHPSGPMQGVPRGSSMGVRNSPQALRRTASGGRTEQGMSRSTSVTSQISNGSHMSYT

Epidermal growth factor receptor (Homo sapiens), P00533 [L858R], sequence (P00533 whole entry L858R): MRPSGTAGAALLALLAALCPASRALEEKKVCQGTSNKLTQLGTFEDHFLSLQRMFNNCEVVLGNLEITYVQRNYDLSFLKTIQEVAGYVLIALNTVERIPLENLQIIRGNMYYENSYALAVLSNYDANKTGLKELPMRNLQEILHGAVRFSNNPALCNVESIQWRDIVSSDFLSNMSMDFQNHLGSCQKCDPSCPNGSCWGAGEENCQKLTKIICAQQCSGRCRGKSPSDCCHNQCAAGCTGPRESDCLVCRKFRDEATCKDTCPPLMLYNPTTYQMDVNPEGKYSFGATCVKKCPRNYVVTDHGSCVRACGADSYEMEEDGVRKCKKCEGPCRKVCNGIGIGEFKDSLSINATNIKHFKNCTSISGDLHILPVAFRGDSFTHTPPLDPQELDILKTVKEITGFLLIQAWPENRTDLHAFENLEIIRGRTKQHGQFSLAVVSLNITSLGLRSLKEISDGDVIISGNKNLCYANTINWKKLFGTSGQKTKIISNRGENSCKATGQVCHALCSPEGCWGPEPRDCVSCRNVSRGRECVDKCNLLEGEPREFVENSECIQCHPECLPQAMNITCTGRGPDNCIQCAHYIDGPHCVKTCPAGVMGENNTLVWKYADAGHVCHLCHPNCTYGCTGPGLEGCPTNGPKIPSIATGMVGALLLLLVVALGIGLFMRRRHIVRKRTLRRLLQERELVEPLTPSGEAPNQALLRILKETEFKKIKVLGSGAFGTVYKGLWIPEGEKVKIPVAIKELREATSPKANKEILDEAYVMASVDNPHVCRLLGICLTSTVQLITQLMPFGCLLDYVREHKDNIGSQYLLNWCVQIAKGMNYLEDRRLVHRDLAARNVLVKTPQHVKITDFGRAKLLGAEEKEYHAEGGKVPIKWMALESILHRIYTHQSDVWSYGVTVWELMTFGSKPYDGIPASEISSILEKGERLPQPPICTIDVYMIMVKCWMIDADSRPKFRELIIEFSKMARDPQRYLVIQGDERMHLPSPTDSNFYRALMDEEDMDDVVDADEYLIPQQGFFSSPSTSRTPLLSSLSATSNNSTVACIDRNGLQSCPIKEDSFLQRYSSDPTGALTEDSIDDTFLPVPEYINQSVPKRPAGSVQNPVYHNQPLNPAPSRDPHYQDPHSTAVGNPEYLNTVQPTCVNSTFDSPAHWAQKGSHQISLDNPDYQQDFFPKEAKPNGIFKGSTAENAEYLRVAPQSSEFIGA
Cyclin-dependent kinase-like 5 (Homo sapiens), sequence (O76039 whole entry): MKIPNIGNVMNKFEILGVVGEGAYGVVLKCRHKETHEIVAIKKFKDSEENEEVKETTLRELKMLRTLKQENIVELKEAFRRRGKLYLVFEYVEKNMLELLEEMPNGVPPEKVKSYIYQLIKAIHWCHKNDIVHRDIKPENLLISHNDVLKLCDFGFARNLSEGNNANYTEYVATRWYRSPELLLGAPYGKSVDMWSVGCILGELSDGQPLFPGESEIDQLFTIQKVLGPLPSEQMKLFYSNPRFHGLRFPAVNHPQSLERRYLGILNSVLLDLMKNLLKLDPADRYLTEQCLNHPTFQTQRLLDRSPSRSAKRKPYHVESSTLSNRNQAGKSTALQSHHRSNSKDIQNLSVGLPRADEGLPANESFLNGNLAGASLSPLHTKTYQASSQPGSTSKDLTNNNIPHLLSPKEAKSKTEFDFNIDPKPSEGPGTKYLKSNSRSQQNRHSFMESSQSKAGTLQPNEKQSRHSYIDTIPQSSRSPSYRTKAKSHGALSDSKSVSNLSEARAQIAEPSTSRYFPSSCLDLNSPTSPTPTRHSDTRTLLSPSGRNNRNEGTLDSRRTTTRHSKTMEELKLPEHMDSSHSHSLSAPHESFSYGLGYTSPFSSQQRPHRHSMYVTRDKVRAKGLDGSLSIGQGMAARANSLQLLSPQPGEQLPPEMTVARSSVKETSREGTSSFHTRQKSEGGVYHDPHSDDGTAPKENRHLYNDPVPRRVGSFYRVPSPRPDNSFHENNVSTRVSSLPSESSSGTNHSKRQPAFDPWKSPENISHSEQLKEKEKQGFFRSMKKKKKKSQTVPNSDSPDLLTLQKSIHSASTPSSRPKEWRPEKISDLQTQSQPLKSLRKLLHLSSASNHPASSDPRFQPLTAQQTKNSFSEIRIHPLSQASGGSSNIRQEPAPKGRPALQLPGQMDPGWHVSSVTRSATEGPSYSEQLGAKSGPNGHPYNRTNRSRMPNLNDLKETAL
Mitogen-activated protein kinase 9, sequence (P45984 whole entry, looked up): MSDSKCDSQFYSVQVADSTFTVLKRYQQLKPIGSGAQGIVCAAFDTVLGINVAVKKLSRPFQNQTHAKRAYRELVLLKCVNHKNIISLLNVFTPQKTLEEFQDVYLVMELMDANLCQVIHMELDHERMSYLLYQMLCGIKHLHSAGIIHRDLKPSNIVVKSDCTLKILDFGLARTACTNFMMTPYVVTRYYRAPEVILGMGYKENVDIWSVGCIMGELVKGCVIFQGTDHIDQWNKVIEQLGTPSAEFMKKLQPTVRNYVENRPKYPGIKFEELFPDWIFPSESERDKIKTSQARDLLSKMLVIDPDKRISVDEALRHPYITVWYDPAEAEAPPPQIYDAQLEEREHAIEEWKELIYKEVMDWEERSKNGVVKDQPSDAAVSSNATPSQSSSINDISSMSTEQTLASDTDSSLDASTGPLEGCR
5'-AMP-activated protein kinase catalytic subunit alpha-1 (Homo sapiens), sequence (Q13131 whole entry, looked up): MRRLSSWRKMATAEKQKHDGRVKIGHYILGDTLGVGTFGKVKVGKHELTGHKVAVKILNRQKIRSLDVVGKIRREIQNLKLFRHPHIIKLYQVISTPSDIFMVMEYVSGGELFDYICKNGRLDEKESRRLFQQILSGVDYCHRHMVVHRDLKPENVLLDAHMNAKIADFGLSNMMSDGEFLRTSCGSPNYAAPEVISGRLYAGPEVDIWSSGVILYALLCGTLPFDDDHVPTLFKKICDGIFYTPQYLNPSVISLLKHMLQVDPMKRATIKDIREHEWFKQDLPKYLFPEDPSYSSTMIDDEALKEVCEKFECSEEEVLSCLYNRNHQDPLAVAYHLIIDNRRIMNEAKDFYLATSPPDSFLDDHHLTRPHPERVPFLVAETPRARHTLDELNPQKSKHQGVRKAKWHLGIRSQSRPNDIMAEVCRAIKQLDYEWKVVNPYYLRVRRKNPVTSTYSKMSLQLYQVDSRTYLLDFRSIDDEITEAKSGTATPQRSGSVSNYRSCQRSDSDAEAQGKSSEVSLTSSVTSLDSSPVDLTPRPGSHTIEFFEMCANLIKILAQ

Question: With `CNc1cc(Oc2cc(C(=O)Nc3cc(N4CCN(C)CC4)cc(C(F)(F)F)c3)ccc2C)ncn1` as the compound, how does the inhibition [1] read?
Answer: 13%

Question: And the inhibition [2]?
Answer: -7.5%

Question: What about the inhibition [3] of the same compound?
Answer: 14.5%

Question: And the inhibition [4]?
Answer: 8.6%

Question: How did the inhibition [5] turn out when `CCN1CCN(Cc2ccc(NC(=O)c3ccc(C)c(Oc4ccnc5[nH]ccc45)c3)cc2C(F)(F)F)CC1` was run?
Answer: 14%

Question: With `CCN1CCN(Cc2ccc(NC(=O)c3ccc(C)c(/C=C/c4cnc5[nH]ccc5c4OC)c3)cc2C(F)(F)F)CC1` as the compound, how does the residual activity [6] read?
Answer: 100%

Question: And the inhibition [7]?
Answer: 22%

From ChEMBL document CHEMBL5696442, “Discovery of type II inhibitors of TGFβ-activated kinase 1 (TAK1) and mitogen-activated protein kinase kinase kinase kinase 2 (MAP4K2)” (J Med Chem, 2015)
